Source: US9187411B2, “Leukotriene B4 antagonist compound” (Eli Lilly and Company, priority 2012, dated 2015)

Test system: LTB4-induced phosphorylation of ERK in monocytes
Assay: Human pERK assay in whole blood
Assay type: cell-based
Conditions: Monocyte, 10 nM LTB4
Procedure: The ability of the compound of Example 2 to block LTB4-induced signaling through BLT1 was assessed in whole blood obtained from healthy human volunteers and from 129SvEv mice that are the model strain for preclinical AAA efficacy evaluation.
Whole blood is collected from human donors in 10 mL K2 ethylenediaminetetraacetic acid (EDTA) vacutainer tubes (BD Biosciences). Aliquots of whole blood are pre-warmed at 37° C. for 20 min. 10 point dose response curves of test compounds are assayed at final concentrations of 20 nM-10 μM. 10 point ½ serial dilutions of compound at 1000× of final assayed concentration are prepared in DMSO. Compound is then diluted to 10× in Dulbecco's Phosphate Buffered Saline (DPBS) (DMSO concentration is now 1%). 10 μL of compound dilutions (at 10× in DPBS) or 1% DMSO in DPBS are added to wells of a 2.0 mL volume 96 deep well plate (Nunc) and placed in 37° C. heat block.
Immediately thereafter, 80 μL whole blood is added and incubated for 20 min at 37° C. […] Samples are warmed to room temperature and analyzed on a Beckman Coulter FC500 flow cytometer. […] Data are analyzed with WinList software (Verity Software House) to determine mean and median fluorescent intensity values for pERK-PE from monocyte population.

Q: For CCCc1c(NC(=O)CC(C)(C)C(=O)[O-])cccc1OCCCOc1cc(O)c(-c2ccc(F)cc2)cc1CC.[Na+] [Example 2, Sodium 4-[[3-[3-[2-ethyl-4-(4-fluorophenyl)-5-hydroxy-phenoxy]propoxy]-2-propyl-phenyl]amino]-2,2-dimethyl-4-oxo-butanoate], which IC50 is on record?
A: 814 nM
